Measured values reported in ChEMBL document CHEMBL3991601, “The target landscape of clinical kinase drugs” (Science, 2017).
Active and inactive are the calls of the source.

Target: T1, Cyclin-dependent kinase-like 5 (Homo sapiens, UniProt O76039)
T1 sequence (O76039 whole entry): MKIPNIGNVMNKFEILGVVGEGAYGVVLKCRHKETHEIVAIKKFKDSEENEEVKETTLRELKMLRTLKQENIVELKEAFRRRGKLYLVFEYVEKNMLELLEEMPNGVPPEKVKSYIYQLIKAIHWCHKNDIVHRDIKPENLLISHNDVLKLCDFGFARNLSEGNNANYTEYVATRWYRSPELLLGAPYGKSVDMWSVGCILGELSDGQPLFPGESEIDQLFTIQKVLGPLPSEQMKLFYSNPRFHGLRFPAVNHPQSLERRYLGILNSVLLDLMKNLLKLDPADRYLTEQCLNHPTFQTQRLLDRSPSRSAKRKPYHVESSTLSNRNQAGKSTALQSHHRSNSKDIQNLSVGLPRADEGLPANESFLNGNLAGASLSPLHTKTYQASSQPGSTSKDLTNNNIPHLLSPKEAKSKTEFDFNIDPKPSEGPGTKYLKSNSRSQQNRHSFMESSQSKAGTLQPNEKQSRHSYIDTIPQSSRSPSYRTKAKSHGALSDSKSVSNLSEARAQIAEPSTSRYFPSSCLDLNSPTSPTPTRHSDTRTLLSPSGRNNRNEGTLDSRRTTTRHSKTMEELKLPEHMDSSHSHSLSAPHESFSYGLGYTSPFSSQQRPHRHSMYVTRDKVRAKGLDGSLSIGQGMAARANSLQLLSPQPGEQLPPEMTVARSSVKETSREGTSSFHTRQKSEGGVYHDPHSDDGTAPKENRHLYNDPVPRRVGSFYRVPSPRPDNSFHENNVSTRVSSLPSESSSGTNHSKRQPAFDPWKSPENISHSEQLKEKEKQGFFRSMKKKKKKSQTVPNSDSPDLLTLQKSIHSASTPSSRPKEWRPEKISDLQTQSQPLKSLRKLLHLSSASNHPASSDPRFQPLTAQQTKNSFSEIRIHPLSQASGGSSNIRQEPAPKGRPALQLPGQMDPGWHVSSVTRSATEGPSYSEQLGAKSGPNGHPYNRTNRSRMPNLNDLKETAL
Also: in the data inactive means no Kd found up to 30 µM.

Row | SMILES | Kd
1 | COCCNCc1ccc(-c2cc3nccc(Oc4ccc(NC(=S)NC(=O)Cc5ccc(F)cc5)cc4F)c3s2)nc1 [GLESATINIB] | > 30 µM (inactive)
2 | CC[C@H](Nc1ncnc2[nH]cnc12)c1nc2cccc(F)c2c(=O)n1-c1ccccc1 [IDELALISIB] | > 30 µM (inactive)
3 | Cn1cc(-c2ccc3nnc(C(F)(F)c4ccc5ncccc5c4)n3n2)cn1 [JNJ-38877605] | > 30 µM (inactive)
4 | Cn1cc(-c2ccc(F)c(C(F)(F)F)c2)nc1C1CCN(c2ncnc3[nH]ncc23)CC1 [LY-2584702] | > 30 µM (inactive)
5 | C1=C/COCc2cc(ccc2OCCN2CCCC2)Nc2nccc(n2)-c2cccc(c2)COC/1 [PACRITINIB] | > 30 µM (inactive)
6 | C=CC(=O)N1CCC(Oc2cc3c(Nc4ccc(Cl)c(Cl)c4F)ncnc3cc2OC)CC1 [POZIOTINIB] | > 30 µM (inactive)
7 | COc1cc(OC)c(/C=C/S(=O)(=O)Cc2ccc(OC)c(NCC(=O)O)c2)c(OC)c1 [RIGOSERTIB] | > 30 µM (inactive)

Target: Cyclin-dependent kinase 2 (Homo sapiens, UniProt P24941)

Row | SMILES | Kd
8 | COCCNCc1ccc(-c2cc3nccc(Oc4ccc(NC(=S)NC(=O)Cc5ccc(F)cc5)cc4F)c3s2)nc1 [GLESATINIB] | > 30 µM (inactive)
9 | CC[C@H](Nc1ncnc2[nH]cnc12)c1nc2cccc(F)c2c(=O)n1-c1ccccc1 [IDELALISIB] | > 30 µM (inactive)
10 | Cn1cc(-c2ccc3nnc(C(F)(F)c4ccc5ncccc5c4)n3n2)cn1 [JNJ-38877605] | > 30 µM (inactive)
11 | Cn1cc(-c2ccc(F)c(C(F)(F)F)c2)nc1C1CCN(c2ncnc3[nH]ncc23)CC1 [LY-2584702] | > 30 µM (inactive)
12 | C1=C/COCc2cc(ccc2OCCN2CCCC2)Nc2nccc(n2)-c2cccc(c2)COC/1 [PACRITINIB] | > 30 µM (inactive)
13 | C=CC(=O)N1CCC(Oc2cc3c(Nc4ccc(Cl)c(Cl)c4F)ncnc3cc2OC)CC1 [POZIOTINIB] | > 30 µM (inactive)
14 | COc1cc(OC)c(/C=C/S(=O)(=O)Cc2ccc(OC)c(NCC(=O)O)c2)c(OC)c1 [RIGOSERTIB] | > 30 µM (inactive)

Target: T2, Long-chain-fatty-acid--CoA ligase 5 (Homo sapiens, UniProt Q9ULC5)
T2 sequence (Q9ULC5 whole entry): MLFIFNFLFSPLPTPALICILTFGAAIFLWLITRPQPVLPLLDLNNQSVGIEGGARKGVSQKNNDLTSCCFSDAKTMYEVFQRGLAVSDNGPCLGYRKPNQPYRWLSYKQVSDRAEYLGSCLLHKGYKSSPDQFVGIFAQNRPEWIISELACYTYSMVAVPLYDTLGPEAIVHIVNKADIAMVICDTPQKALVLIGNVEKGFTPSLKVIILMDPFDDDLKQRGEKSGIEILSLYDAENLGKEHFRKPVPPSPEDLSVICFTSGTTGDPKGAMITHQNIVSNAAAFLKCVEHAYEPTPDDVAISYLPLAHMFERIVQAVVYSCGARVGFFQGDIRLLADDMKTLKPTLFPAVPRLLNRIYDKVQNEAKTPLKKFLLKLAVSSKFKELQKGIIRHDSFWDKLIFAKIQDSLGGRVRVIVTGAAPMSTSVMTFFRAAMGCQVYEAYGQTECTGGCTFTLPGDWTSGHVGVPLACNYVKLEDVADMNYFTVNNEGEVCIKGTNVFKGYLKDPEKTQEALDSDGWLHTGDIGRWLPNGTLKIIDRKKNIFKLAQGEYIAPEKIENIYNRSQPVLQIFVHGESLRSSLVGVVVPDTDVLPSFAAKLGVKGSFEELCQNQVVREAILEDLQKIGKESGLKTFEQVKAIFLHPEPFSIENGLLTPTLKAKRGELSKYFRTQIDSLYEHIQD

Row | SMILES | Kd
15 | COCCNCc1ccc(-c2cc3nccc(Oc4ccc(NC(=S)NC(=O)Cc5ccc(F)cc5)cc4F)c3s2)nc1 [GLESATINIB] | > 30 µM (inactive)
16 | CC[C@H](Nc1ncnc2[nH]cnc12)c1nc2cccc(F)c2c(=O)n1-c1ccccc1 [IDELALISIB] | > 30 µM (inactive)
17 | Cn1cc(-c2ccc3nnc(C(F)(F)c4ccc5ncccc5c4)n3n2)cn1 [JNJ-38877605] | > 30 µM (inactive)
18 | Cn1cc(-c2ccc(F)c(C(F)(F)F)c2)nc1C1CCN(c2ncnc3[nH]ncc23)CC1 [LY-2584702] | > 30 µM (inactive)

Target: Choline-phosphate cytidylyltransferase A (Homo sapiens, UniProt P49585)
Sequence (P49585 whole entry): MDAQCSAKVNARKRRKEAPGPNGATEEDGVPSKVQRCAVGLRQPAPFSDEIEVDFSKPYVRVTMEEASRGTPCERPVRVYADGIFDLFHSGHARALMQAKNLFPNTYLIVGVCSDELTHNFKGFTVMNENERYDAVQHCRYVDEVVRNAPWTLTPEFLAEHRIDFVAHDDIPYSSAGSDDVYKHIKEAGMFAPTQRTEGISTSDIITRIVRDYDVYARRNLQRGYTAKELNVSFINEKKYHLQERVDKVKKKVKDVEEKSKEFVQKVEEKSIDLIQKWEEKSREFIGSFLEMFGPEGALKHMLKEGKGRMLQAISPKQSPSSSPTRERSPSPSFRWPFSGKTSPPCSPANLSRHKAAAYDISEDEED

Row | SMILES | Kd
19 | COCCNCc1ccc(-c2cc3nccc(Oc4ccc(NC(=S)NC(=O)Cc5ccc(F)cc5)cc4F)c3s2)nc1 [GLESATINIB] | > 30 µM (inactive)
20 | Cn1cc(-c2ccc3nnc(C(F)(F)c4ccc5ncccc5c4)n3n2)cn1 [JNJ-38877605] | > 30 µM (inactive)
21 | C=CC(=O)N1CCC(Oc2cc3c(Nc4ccc(Cl)c(Cl)c4F)ncnc3cc2OC)CC1 [POZIOTINIB] | > 30 µM (inactive)
22 | COc1cc(OC)c(/C=C/S(=O)(=O)Cc2ccc(OC)c(NCC(=O)O)c2)c(OC)c1 [RIGOSERTIB] | > 30 µM (inactive)

Target: Cyclin-dependent kinase 17 (Homo sapiens, UniProt Q00537)
Sequence (Q00537 whole entry): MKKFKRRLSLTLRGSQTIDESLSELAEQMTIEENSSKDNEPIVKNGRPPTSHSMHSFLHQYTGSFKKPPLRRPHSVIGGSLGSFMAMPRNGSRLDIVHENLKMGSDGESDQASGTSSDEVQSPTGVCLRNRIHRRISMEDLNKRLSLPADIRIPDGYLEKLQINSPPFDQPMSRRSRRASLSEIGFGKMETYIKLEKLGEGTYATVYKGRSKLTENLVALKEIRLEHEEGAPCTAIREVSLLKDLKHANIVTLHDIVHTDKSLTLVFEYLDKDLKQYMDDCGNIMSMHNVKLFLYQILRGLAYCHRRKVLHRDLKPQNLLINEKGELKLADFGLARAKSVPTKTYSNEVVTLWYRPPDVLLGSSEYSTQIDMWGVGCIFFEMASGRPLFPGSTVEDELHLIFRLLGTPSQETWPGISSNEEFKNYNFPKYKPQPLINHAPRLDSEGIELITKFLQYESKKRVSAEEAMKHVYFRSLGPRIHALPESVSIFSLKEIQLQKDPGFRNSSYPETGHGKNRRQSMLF

Row | SMILES | Kd
23 | COCCNCc1ccc(-c2cc3nccc(Oc4ccc(NC(=S)NC(=O)Cc5ccc(F)cc5)cc4F)c3s2)nc1 [GLESATINIB] | > 30 µM (inactive)
24 | CC[C@H](Nc1ncnc2[nH]cnc12)c1nc2cccc(F)c2c(=O)n1-c1ccccc1 [IDELALISIB] | > 30 µM (inactive)
25 | Cn1cc(-c2ccc3nnc(C(F)(F)c4ccc5ncccc5c4)n3n2)cn1 [JNJ-38877605] | > 30 µM (inactive)
26 | C=CC(=O)N1CCC(Oc2cc3c(Nc4ccc(Cl)c(Cl)c4F)ncnc3cc2OC)CC1 [POZIOTINIB] | > 30 µM (inactive)
27 | COc1cc(OC)c(/C=C/S(=O)(=O)Cc2ccc(OC)c(NCC(=O)O)c2)c(OC)c1 [RIGOSERTIB] | > 30 µM (inactive)

Target: Mitogen-activated protein kinase 14 (Homo sapiens, UniProt Q16539)
Sequence (Q16539 whole entry): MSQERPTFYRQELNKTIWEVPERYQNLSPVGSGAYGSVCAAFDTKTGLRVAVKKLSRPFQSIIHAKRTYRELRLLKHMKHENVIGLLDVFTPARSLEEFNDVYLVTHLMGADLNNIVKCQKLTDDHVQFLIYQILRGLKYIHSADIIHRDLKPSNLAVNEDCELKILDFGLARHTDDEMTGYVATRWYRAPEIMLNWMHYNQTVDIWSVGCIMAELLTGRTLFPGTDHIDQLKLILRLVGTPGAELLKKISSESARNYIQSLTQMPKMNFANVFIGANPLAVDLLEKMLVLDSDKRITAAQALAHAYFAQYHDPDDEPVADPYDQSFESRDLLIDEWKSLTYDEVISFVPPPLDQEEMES

Row | SMILES | Kd
28 | COCCNCc1ccc(-c2cc3nccc(Oc4ccc(NC(=S)NC(=O)Cc5ccc(F)cc5)cc4F)c3s2)nc1 [GLESATINIB] | > 30 µM (inactive)
29 | CC[C@H](Nc1ncnc2[nH]cnc12)c1nc2cccc(F)c2c(=O)n1-c1ccccc1 [IDELALISIB] | > 30 µM (inactive)
30 | Cn1cc(-c2ccc3nnc(C(F)(F)c4ccc5ncccc5c4)n3n2)cn1 [JNJ-38877605] | > 30 µM (inactive)
31 | Cn1cc(-c2ccc(F)c(C(F)(F)F)c2)nc1C1CCN(c2ncnc3[nH]ncc23)CC1 [LY-2584702] | > 30 µM (inactive)
32 | C1=C/COCc2cc(ccc2OCCN2CCCC2)Nc2nccc(n2)-c2cccc(c2)COC/1 [PACRITINIB] | > 30 µM (inactive)
33 | C=CC(=O)N1CCC(Oc2cc3c(Nc4ccc(Cl)c(Cl)c4F)ncnc3cc2OC)CC1 [POZIOTINIB] | > 30 µM (inactive)
34 | COc1cc(OC)c(/C=C/S(=O)(=O)Cc2ccc(OC)c(NCC(=O)O)c2)c(OC)c1 [RIGOSERTIB] | > 30 µM (inactive)

Target: Misshapen-like kinase 1 (Homo sapiens, UniProt Q8N4C8)
Sequence (Q8N4C8 whole entry): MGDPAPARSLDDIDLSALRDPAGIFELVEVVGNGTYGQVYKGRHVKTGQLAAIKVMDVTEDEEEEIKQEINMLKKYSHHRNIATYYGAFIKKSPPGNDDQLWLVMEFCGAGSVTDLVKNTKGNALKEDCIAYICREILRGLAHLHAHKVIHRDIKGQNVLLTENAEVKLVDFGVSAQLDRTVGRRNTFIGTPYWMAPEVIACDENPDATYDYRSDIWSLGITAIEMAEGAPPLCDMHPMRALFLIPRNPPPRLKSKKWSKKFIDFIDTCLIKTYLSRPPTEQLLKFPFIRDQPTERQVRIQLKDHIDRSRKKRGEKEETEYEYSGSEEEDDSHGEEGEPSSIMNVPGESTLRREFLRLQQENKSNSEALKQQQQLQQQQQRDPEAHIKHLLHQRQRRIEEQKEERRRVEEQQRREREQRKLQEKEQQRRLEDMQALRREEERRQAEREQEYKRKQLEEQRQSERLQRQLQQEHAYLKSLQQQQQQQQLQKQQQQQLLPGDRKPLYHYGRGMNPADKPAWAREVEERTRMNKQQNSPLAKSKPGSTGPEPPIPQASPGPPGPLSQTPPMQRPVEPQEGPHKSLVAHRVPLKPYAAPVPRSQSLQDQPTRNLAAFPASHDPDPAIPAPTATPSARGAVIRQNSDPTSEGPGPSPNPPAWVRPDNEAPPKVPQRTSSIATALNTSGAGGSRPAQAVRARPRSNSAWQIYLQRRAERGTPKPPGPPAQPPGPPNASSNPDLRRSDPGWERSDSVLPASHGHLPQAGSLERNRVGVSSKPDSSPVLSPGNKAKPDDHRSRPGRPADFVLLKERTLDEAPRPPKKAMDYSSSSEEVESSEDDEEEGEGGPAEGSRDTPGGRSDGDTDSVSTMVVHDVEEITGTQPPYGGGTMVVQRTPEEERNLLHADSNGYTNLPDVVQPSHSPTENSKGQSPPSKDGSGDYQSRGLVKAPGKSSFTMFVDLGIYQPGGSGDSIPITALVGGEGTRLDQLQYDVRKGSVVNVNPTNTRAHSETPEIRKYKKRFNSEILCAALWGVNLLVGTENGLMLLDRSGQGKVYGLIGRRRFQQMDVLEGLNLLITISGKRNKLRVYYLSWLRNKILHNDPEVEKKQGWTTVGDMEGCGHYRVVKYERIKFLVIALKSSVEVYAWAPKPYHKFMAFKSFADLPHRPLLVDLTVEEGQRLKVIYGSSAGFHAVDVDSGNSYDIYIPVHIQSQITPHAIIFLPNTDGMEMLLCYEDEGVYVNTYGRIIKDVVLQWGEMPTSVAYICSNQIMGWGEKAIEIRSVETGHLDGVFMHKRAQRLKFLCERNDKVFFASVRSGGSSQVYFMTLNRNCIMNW

Row | SMILES | Kd
35 | CC[C@H](Nc1ncnc2[nH]cnc12)c1nc2cccc(F)c2c(=O)n1-c1ccccc1 [IDELALISIB] | > 30 µM (inactive)
36 | Cn1cc(-c2ccc(F)c(C(F)(F)F)c2)nc1C1CCN(c2ncnc3[nH]ncc23)CC1 [LY-2584702] | > 30 µM (inactive)
37 | C=CC(=O)N1CCC(Oc2cc3c(Nc4ccc(Cl)c(Cl)c4F)ncnc3cc2OC)CC1 [POZIOTINIB] | > 30 µM (inactive)

Target: Guanine nucleotide-binding protein G(i) subunit alpha-2 (Homo sapiens, UniProt P04899)
Sequence (P04899 whole entry): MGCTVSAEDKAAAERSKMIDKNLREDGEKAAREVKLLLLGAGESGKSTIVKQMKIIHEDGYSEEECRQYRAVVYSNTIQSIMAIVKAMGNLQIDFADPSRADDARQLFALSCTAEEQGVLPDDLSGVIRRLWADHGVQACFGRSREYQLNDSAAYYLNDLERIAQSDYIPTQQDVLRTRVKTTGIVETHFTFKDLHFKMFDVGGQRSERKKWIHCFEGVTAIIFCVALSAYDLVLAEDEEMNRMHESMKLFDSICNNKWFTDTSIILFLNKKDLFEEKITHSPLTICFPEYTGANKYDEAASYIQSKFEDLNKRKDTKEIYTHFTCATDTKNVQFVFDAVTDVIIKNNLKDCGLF

Row | SMILES | Kd
38 | COCCNCc1ccc(-c2cc3nccc(Oc4ccc(NC(=S)NC(=O)Cc5ccc(F)cc5)cc4F)c3s2)nc1 [GLESATINIB] | > 30 µM (inactive)
39 | CC[C@H](Nc1ncnc2[nH]cnc12)c1nc2cccc(F)c2c(=O)n1-c1ccccc1 [IDELALISIB] | > 30 µM (inactive)
40 | Cn1cc(-c2ccc3nnc(C(F)(F)c4ccc5ncccc5c4)n3n2)cn1 [JNJ-38877605] | > 30 µM (inactive)
41 | Cn1cc(-c2ccc(F)c(C(F)(F)F)c2)nc1C1CCN(c2ncnc3[nH]ncc23)CC1 [LY-2584702] | > 30 µM (inactive)
42 | C=CC(=O)N1CCC(Oc2cc3c(Nc4ccc(Cl)c(Cl)c4F)ncnc3cc2OC)CC1 [POZIOTINIB] | > 30 µM (inactive)
43 | COc1cc(OC)c(/C=C/S(=O)(=O)Cc2ccc(OC)c(NCC(=O)O)c2)c(OC)c1 [RIGOSERTIB] | > 30 µM (inactive)

Target: Dual specificity protein kinase CLK4 (Homo sapiens, UniProt Q9HAZ1)
Sequence (Q9HAZ1 whole entry): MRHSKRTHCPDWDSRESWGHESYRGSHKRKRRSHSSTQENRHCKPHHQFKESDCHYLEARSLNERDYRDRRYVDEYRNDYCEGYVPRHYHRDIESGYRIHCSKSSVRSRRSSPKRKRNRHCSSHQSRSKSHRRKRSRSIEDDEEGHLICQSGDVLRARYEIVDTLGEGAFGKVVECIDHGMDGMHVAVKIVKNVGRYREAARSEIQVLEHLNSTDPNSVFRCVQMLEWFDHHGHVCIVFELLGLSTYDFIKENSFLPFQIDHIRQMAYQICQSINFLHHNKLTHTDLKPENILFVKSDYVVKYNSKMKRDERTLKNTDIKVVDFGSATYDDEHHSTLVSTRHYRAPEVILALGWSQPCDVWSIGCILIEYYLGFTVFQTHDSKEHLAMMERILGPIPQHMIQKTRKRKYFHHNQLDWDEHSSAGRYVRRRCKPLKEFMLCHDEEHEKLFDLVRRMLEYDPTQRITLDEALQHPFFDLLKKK

Row | SMILES | Kd
44 | COCCNCc1ccc(-c2cc3nccc(Oc4ccc(NC(=S)NC(=O)Cc5ccc(F)cc5)cc4F)c3s2)nc1 [GLESATINIB] | > 30 µM (inactive)
45 | CC[C@H](Nc1ncnc2[nH]cnc12)c1nc2cccc(F)c2c(=O)n1-c1ccccc1 [IDELALISIB] | > 30 µM (inactive)
46 | Cn1cc(-c2ccc3nnc(C(F)(F)c4ccc5ncccc5c4)n3n2)cn1 [JNJ-38877605] | > 30 µM (inactive)
47 | COc1cc(OC)c(/C=C/S(=O)(=O)Cc2ccc(OC)c(NCC(=O)O)c2)c(OC)c1 [RIGOSERTIB] | > 30 µM (inactive)
